US20230226048A1, “NEW USE OF RABEXIMOD” (Cyxone AB, priority 2020, published 2023)

Columns and labels:
[1] = tested on: mixed lymphocytes reaction (MLR) of human donors; assay: Mixed lymphocytes reaction (MLR) of human donors, 3[H]-thymidine incorporation; assay type: cell-based
Method: Peripheral blood mononuclear cells (PBMCs) were prepared and modified for use as stimulator cells through γ-irradiation, or for use as responder cells. Rabeximod was then added to a responder and […] cell mix at various concentrations (of 10^−5, 10^−6, 10^−7 and 10^−8 M) before the cells were incubated. In the test, responder cells should proliferate more in the presence than in the absence of stimulator cells.
Normal PBMCs were obtained from healthy volunteers at the blood bank (Shiba medical center, Tel-Hashomer). Blood donations tested negative to HBSAg, HIV, HCV, ALT, HTLV and TPHA. Twelve donors were obtained in 3 sessions following review by the Committee for Ethical Conduct in the Care and Use of Laboratory Animals of the Hebrew University, Jerusalem, the Institutional Animal Care and Use Committee (IACUC) responsible for approving Harlan Biotech (Israel) animal usage application in compliance with its respective registration under National Institues of Health (NIH) accreditation no. OPR-A01-5011. Peripheral blood mononuclear cells (PBMCs) were freshly separated from heparinized full blood by Ficoll-Hypaque (IsoPrep, Robbins Scientific) density gradient centrifugation. After two washes with PBS, cells were diluted in PBMCs medium and counted. Since MLR was conducted in two-ways format, each donor was utilized as stimulator and as responder.
In each session, 0.87*10^6/ml PBMCs cells from each donor were mixed and then γ-irradiated with 4000 rad (about 6.25 minutes). Cells were diluted in PBMCs medium to give the highest concentration). Further dilutions in ×2-fold were done in PBMCs medium. 50*10^6 were taken from each donor to obtain a mixture of stimulators in each experiment.
Cells were resuspended in PBMCs medium at approximately 2*10^6 cells/ml and incubated in flasks for 2 hours at 5% CO2, 37° C. Adherent cells were dis-carded while non-adherent cells in the supernatant were centrifuged at 700 g for 10 minutes. To enrich for T lymphocytes, cells were resuspended in 5% PBMCs medium and loaded on nylon wool columns (Uni-Sorb, Novamed) at 8*10^7 cells/ml, according to manufacturer instructions.
Cells were seeded in 96-well round-bottom plates at the varying ratios of stimulator vs. responder cells.
^3[H]-Thymidine was added to the cell culture at 18 hrs before the end of the cultivation period (6 days). Cells were harvested and transferred to filters (unifilters GF/C) using the Packard filtermate Cell harvester. Following addition of scintillation fluid (MicroScint20™) to the filters, they were counted in Packard microplate scintillation β-counter. Results are expressed as Counting Per Minutes (CPM).

[2] = tested on: human peripheral blood mononuclear cells (PBMC); assay: LPS-stimulated cytokine/chemokine release from human PBMC in vitro (multiplex, Luminex); assay type: cell-based; details: PBMC from 7 donors
Method: The effect of Rabeximod on the release of GM-CSF, IL-113, IL-6, IL-8, TNF-α, MCP-1, MIP-1a, MIP-1β and RANTES from human peripheral blood mononuclear cells (PBMC) in vitro was evaluated. Rabeximod was tested at two concentrations (1.25 μg/ml and 12.5 μg/ml) on PBMC's isolated from 7 donors. Human PBMCs were isolated from whole blood using a Ficoll gradient. Cells ([…]) were then plated in a volume of 0.5 ml (0.5 ml of vehicle control (1% methanol in RPMI 1640 media) or rabeximod resuspended in methanol and diluted to a concentration of […] media was added). After incubation (1 h 37° C.) with LPS (0.1 mg/ml), cells were further incubated for 18-20 h before supernatant was removed for analysis of cytokine production using cytokine multiplex assays (Biosource, Nivelles, Belgium), accord-ing to the manufacturer's instructions. Data were collected using a Luminex 100 (Luminex Corporation, Austin, Tex., USA). All samples were analyzed in duplicates and a mean value for each sample was calculated.

[3] = tested on: TLR2 stimulated macrophages; assay: TNF-α production by thioglycolate-recruited peritoneal macrophages after LPS or TLR2 stimuli (ELISA); assay type: cell-based, mouse; details: 12.5 ug/ml, added 0 h to +3 h after stimulus; stronger effect if administered early
Method: The aim was to investigate whether, after stimulation, Rabeximod has the ability to decrease production of pro-inflammatory cytokines by macrophages isolated from the peritoneal cavity after thioglycolate recruitment. B10.Q mice with/without expression of functional TLR4 matched according to sex and age were used as donors of peritoneal macrophages. Mice were injected on day −5 with sterilized 3% Thioglycolate intraperitoneally. On day 0 the peritoneal cavity was washed with ice cold PBS to collect recruited cells. The cells were counted and added to plates at a final concentration of 200 000 cells/well in medium. Rabeximod diluted in a minimal amount DMSO and then DMEM to final concentration (12.5 ug/ml) was added simultaneously (h 0) or at time points+0.5 h, +1 h or +3 hours after LPS or TLR2 stimuli (Lipomannan). Cells were incubated for 24 hours before the whole plate was frozen. TNF-α ELISA was performed after one week using antibodies from e-biosciences and detected by europium. Mice were injected on […] (1 ml) intraperitoneally. […] TNFα production was determined using a ready-SET-go! […]

## Cc1cc2nc3c4cc(Cl)ccc4n(CC(=O)NCCN(C)C)c3nc2cc1C [Rabeximod, 9-Chloro-2,3-dimethyl-6-(N,N-dimethylaminoethylamino-2-oxoethyl)-6H-indolo-[2,3-b]quinoxaline]
[1]; 10^−5 M, all responder:stimulator ratios
  inhibition of MLR activity: strong inhibitory effect
[1]; 10^−8 M
  inhibition of MLR activity: the inhibition decreased to a lesser extent
[1]; lower doses (10^−7, 10^−8 M)
  inhibition of MLR activity: less effective
[1]; two highest concentrations (10^−5, 10^−6 M), all tested ratios
  inhibition of MLR activity: highly inhibitory
[2]; 1.25 μg/ml
  LPS-stimulated production of IL-6: significantly reduced
  LPS-stimulated production of MIP-1α: significantly reduced
  LPS-stimulated production of MIP-1β: significantly reduced
  LPS-stimulated production of TNFα: significantly reduced
[2]; 12.5 μg/ml
  LPS-stimulated production of RANTES: all but RANTES were reduced
  LPS-stimulated production of pro-inflammatory cytokines and chemokines other than RANTES: reduced
[3]
  TNF-α production from TLR2 stimulated macrophages: decreases
